# Experimental data: patent publication USRE48335E1, “Polymyxin derivatives as antimicrobial compounds” (priority 2014, dated 2020)
# Positions of bridges follow the written chain, without caps; N, C: chain ends. Non-standard residues stand in square brackets, D forms with d. Residues, ends and D or L forms follow the SMILES beside them. *: point of attachment. X6 = O=C(c1ccc(F)c(Cl)c1)*; Heptanoyl = CCCCCCC(=O)*; Octanoyl = CCCCCCCC(=O)*; Dab = NCC[C@H](N)C(=O)O; Abu = CC[C@H](N)C(=O)O; Dap = NC[C@H](N)C(=O)O
# Key:
# Acinetobacter baumannii = system: Acinetobacter baumannii
# How it was run: (§1)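 Lipopeptides, as trifluoroacetate salts, tested for MIC in CAMHB by CLSI broth microdilution, with polymyxin B (sulphate) as comparator.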
# Enterobacter cloacae = system: Enterobacter cloacae
# How it was run: as §1
# Klebsiella pneumoniae = system: Klebsiella pneumoniae
# How it was run: as §1
# Pseudomonas aeruginosa = system: Pseudomonas aeruginosa
# How it was run: as §1
# A. baumannii ATCC 19606 = test: In vivo efficacy in mouse blood infection model (neutropenic Swiss mice); settings: compound, free base 4 mg/kg intravenously 2 h after inoculation, blood at 4 h
# How it was run: (§2)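 Activity expressed as Δlog10 CFU/mL blood, treated minus saline control, 4 h after a single 4 mg/kg (free base) i.v. dose given 2 h post-infection. Bloodstream infection from i.v. early log-phase inoculum in Swiss mice made neutropenic by i.p. cyclophosphamide on days −4 (150 mg/kg) and −1 (100 mg/kg).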
# [1] = system: K. pneumoniae FADDI-KP032; test: as above; settings: compound, free base 4 mg/kg intravenously 2 h after inoculation, blood at 4 h
# How it was run: as §2
# P. aeruginosa ATCC 27853 = test: as above; settings: compound, free base 4 mg/kg intravenously 2 h after inoculation, blood at 4 h
# How it was run: as §2
smiles,measurement,setting,value
CC[C@@H]1NC(=O)[C@@H](CC(C)C)NC(=O)[C@H](CCN)NC(=O)[C@@H](NC(=O)[C@H](CN)NC(=O)[C@@H](NC(=O)[C@H](CCN)NC(=O)c2ccc(F)c(Cl)c2)[C@@H](C)O)CCNC(=O)[C@H]([C@@H](C)O)NC(=O)[C@H](CCN)NC(=O)[C@H](CCN)NC1=O [Compound 110] (X6-[Dab]T[Dap][Dab][Dab][dL][Abu][Dab][Dab]T; lactam 4-C),MIC,Acinetobacter baumannii,2 mg/L
same,"Minimum inhibitory concentration, Ab A ATCC 17978",Acinetobacter baumannii,0.5 mg/L
same,"Minimum inhibitory concentration, Ab ATCC 19606",Acinetobacter baumannii,2 mg/L
same,"Minimum inhibitory concentration, Ab FADDI-AB034",Acinetobacter baumannii,0.5 mg/L
same,"Minimum inhibitory concentration, Ec FADDI-EC001",Enterobacter cloacae,1 mg/L
same,"Minimum inhibitory concentration, Ec FADDI-EC003",Enterobacter cloacae,1 mg/L
same,"Minimum inhibitory concentration, Ec FADDI-EC006",Enterobacter cloacae,0.5 mg/L
same,MIC,Klebsiella pneumoniae,0.25 mg/L
same,MIC,Pseudomonas aeruginosa,0.5 mg/L
same,"Minimum inhibitory concentration, Pa ATCC 27853",Pseudomonas aeruginosa,0.5 mg/L
same,"Minimum inhibitory concentration, Pa FADDI-PA022",Pseudomonas aeruginosa,0.5 mg/L
same,"Minimum inhibitory concentration, Pa FADDI-PA025",Pseudomonas aeruginosa,1 mg/L
same,Δ log (Treated-Control at 4 h),A. baumannii ATCC 19606,−1.57 log10 CFU/mL
same,Δ log (Treated-Control at 4 h),[1],−2.50 log10 CFU/mL
same,Δ log (Treated-Control at 4 h),P. aeruginosa ATCC 27853,−3.30 log10 CFU/mL
CCCCCCCC(=O)N[C@@H](CCN)C(=O)N[C@H](C(=O)N[C@@H](CN)C(=O)N[C@H]1CCNC(=O)[C@H]([C@@H](C)O)NC(=O)[C@H](CCN)NC(=O)[C@H](CCN)NC(=O)[C@H]([C@@H](C)O)NC(=O)[C@@H](Cc2ccccc2)NC(=O)[C@H](CCN)NC1=O)[C@@H](C)O [Compound 129] (Octanoyl-[Dab]T[Dap][Dab][Dab][dF]T[Dab][Dab]T; lactam 4-C),MIC,Acinetobacter baumannii,0.5 mg/L
same,"Minimum inhibitory concentration, Ab A ATCC 17978",Acinetobacter baumannii,0.25 mg/L
same,"Minimum inhibitory concentration, Ab ATCC 19606",Acinetobacter baumannii,0.5 mg/L
same,"Minimum inhibitory concentration, Ab FADDI-AB034",Acinetobacter baumannii,0.25 mg/L
same,"Minimum inhibitory concentration, Ec FADDI-EC001",Enterobacter cloacae,0.5 mg/L
same,"Minimum inhibitory concentration, Ec FADDI-EC003",Enterobacter cloacae,<0.125 mg/L
same,"Minimum inhibitory concentration, Ec FADDI-EC006",Enterobacter cloacae,0.5 mg/L
same,MIC,Klebsiella pneumoniae,<0.125 mg/L
same,MIC,Pseudomonas aeruginosa,0.5 mg/L
same,"Minimum inhibitory concentration, Pa ATCC 27853",Pseudomonas aeruginosa,0.5 mg/L
same,"Minimum inhibitory concentration, Pa FADDI-PA022",Pseudomonas aeruginosa,1 mg/L
same,"Minimum inhibitory concentration, Pa FADDI-PA025",Pseudomonas aeruginosa,2 mg/L
same,Δ log (Treated-Control at 4 h),A. baumannii ATCC 19606,−1.42 log10 CFU/mL
same,Δ log (Treated-Control at 4 h),[1],−3.64 log10 CFU/mL
same,Δ log (Treated-Control at 4 h),P. aeruginosa ATCC 27853,−3.45 log10 CFU/mL
CCCCCCC(=O)N[C@@H](CCN)C(=O)N[C@H](C(=O)N[C@@H](CN)C(=O)N[C@H]1CCNC(=O)[C@H]([C@@H](C)O)NC(=O)[C@H](CCN)NC(=O)[C@H](CCN)NC(=O)[C@H](CC)NC(=O)[C@@H](Cc2ccccc2)NC(=O)[C@H](CCN)NC1=O)[C@@H](C)O [Compound 131] (Heptanoyl-[Dab]T[Dap][Dab][Dab][dF][Abu][Dab][Dab]T; lactam 4-C),MIC,Acinetobacter baumannii,0.25 mg/L
same,"Minimum inhibitory concentration, Ab A ATCC 17978",Acinetobacter baumannii,0.25 mg/L
same,"Minimum inhibitory concentration, Ab ATCC 19606",Acinetobacter baumannii,0.25 mg/L
same,"Minimum inhibitory concentration, Ab FADDI-AB034",Acinetobacter baumannii,0.25 mg/L
same,"Minimum inhibitory concentration, Ec FADDI-EC001",Enterobacter cloacae,<0.125 mg/L
same,"Minimum inhibitory concentration, Ec FADDI-EC003",Enterobacter cloacae,<0.125 mg/L
same,"Minimum inhibitory concentration, Ec FADDI-EC006",Enterobacter cloacae,<0.125 mg/L
same,MIC,Klebsiella pneumoniae,<0.125 mg/L
same,MIC,Pseudomonas aeruginosa,0.5 mg/L
same,"Minimum inhibitory concentration, Pa ATCC 27853",Pseudomonas aeruginosa,0.5 mg/L
same,"Minimum inhibitory concentration, Pa FADDI-PA022",Pseudomonas aeruginosa,2 mg/L
same,"Minimum inhibitory concentration, Pa FADDI-PA025",Pseudomonas aeruginosa,4 mg/L
same,Δ log (Treated-Control at 4 h),A. baumannii ATCC 19606,−1.75 log10 CFU/mL
same,Δ log (Treated-Control at 4 h),[1],−3.44 log10 CFU/mL
same,Δ log (Treated-Control at 4 h),P. aeruginosa ATCC 27853,−3.80 log10 CFU/mL
